Test results from US10533018B2, “Antimicrobial prochelators to target drug-resistant bacteria and methods of making and using the same” (Duke University, priority 2015, dated 2020).

Experiments:
[1] = tested on: susceptible E. coli HB101 K-12 (no β-lactamase); assay: Broth microdilution (preliminary, Table 1), susceptible K-12; format: cell-based, Escherichia coli; details: for IC50: Escherichia coli, Susceptable K-12 E. coli, LB, OD600, preliminary results
Description: In order to determine the antibiotic activity of DB4-51, a debilitated strain of Escherichia coli (HB101 K-12) was transformed with the pGLO plasmid from Bio-Rad in order to express β-lactamase. This transformation was confirmed by growing on a selective medium containing 100 μg/ml ampicillin in Lennox LB with 1.5% agar. A broth microdilution assay was employed to determine the relative activity of DB4-51 against susceptible (HB 101 K-12, no β-lactamase) and resistant (HB 101 K-12 transformed to express β-lactamase) E. coli. Using Lennox LB as the medium. serial dilutions of the test compounds were performed in a 96-well plate and then inoculated with E. coli before incubating for 16-20 hours at 35° C. The bacterial growth was monitored by recording each well's absorbance at 600 nm (OD600.) The OD600 values of E. coli suspensions incubated with various compounds were compared in order to assess their activities.
FIG. 7: OD600 of susceptible and resistant K-12 E. coli cultures against DB4-51 and known antibiotics as a function of concentration. Ampicillin has a penicillin core and cephalexin has a cephalosporin core. Cultures were grown in LB broth at 37° C. while shaking at 200 rpm for 18 hours and then diluted to an OD600 of 0.005 before adding the compounds. Plates were grown at 35° C. while shaking at 200 rpm and the OD600 was recorded after 18 hours.
Table 1: Calculated IC50 values for DB4-51, cephalexin, ampicillin, and pyrithione. These values were derived by fitting the data to a log dose-response curve and reporting the concentration corresponding to half the maximum OD600 value for each compound.

[2] = tested on: Klebsiella pneumonia (Klebs); assay: Broth microdilution growth inhibition (OD600); format: cell-based
Source text: Bacterial culture reagents including LB broth (Lennox), agar-agar, ampicillin, and ceftriaxone were purchased from Sigma Aldrich Corp. The Escherichia coli (E. coli) K12 strain HB101 and pGLO E. coli transformation kit purchased from Bio-Rad Laboratories Inc. HB101 was transformed with the bla gene via the pGLO plasmid. The bla gene encodes for a TEM-1 β-lactamase that imparts penicillin resistance to the mutant E. coli K-12 strain (+Bla). Strains E. coli UTI89, [27] pCOM-GFP-transformed E. coli UTI89 (pCOM-GFP), [28] and Methicillin-Resistant Staphylococcus aureus (MRSA) clone USA300 [29] have been previously described. The Extended-Spectrum β-Lactamase (ESBL) E. coli, Klebsiella pneumonia (Klebs), and Pseudomonas aeruginosa (Pseudo) strains were clinical isolates acquired deidentified from Duke Hospital and tested for antibiotic susceptibility in the Clinical Microbiology Laboratory using standard clinical susceptibility methods.
Cultures were incubated on LB (Lennox, Sigma) agar at 37° C. in ambient atmospheric composition. Before beginning an experiment, a single bacterial colony grown on LB agar was resuspended in 2 mL LB broth and incubated overnight to form a turbid cell suspension. The overnight culture was diluted 1:100 in LB and used immediately as the working culture. To assess the antibacterial activity of compounds, the working bacterial culture was aliquoted in a clear, flat-bottomed, 96-well polystyrene plate (Costar) and the compound of interest was added in 2-fold serial dilution from 500 to 1 μM. Plates were covered with a breathable sealing film (Aeroseal, Genesee Scientific) and incubated at 37° C. in ambient atmospheric composition with shaking at 200 rpm. Optical density at 600 nm was recorded after 4 h and 20 h for each well using a standard OD600 protocol with LB serving as the blank. The resulting dose-response curves were fit to a nonlinear regression in GraphPad Prism Version 6 to calculate the IC50 of DB4-51 in each strain.
The ability of DB4-162 to inhibit bacterial growth was assessed by a traditional broth microdilution method that assesses the turbidity of liquid cultures in the presence of varying concentrations of the compound. As described above for DB4-51, the antibacterial properties of the prochelator DB4-162 were assessed in non-pathogenic lab-strain HB101K-12 E. coli and compared to the pGLO-transfected mutant HB101K-12 E. coli that express β-lactamase. Clinically relevant pathogenic bacteria were also screened, including UTI89 E. coli, pCOM transfected UTI89 E. coli (pCOM), extended spectrum β-lactamase (ESBL) E. coli, methicillin-resistant Staphylococcus aureus (MRSA), and Klebsiella pneumonia (Klebs). In addition to being naturally resistant to many β-lactam antibiotics, MRSA can produce a number of β-lactamases. […] It should be noted that all of the bacteria tested are gram-negative except for gram-positive MRSA.
The goal of this screen was to calculate the IC50 of the prochelator in a series of pathogenic bacteria and compare these values to the IC50 of known antibiotics in those same strains to determine the relative effectiveness of DB4-162 against the drug-resistant and drug-susceptible bacteria in comparison to current antibiotic treatment options. Bacterial growth was monitored in LB broth at 37° C. in the presence and absence of DB4-162 for 20 hours. A concentration gradient of DB4-162 from 500 to 0 μM was used to screen all 7 strains of bacteria and the dose-response curves were fit to a […] to calculate the IC50 of DB4-162 in each strain. These IC50 values are an approximation of how effectively DB4-162 inhibits the growth of each bacterial strain in vitro.
IC50 values for ampicillin were calculated via broth microdilution in LB broth only. Values are listed as the mean followed by the 95% confidence interval about the mean. Mean and confidence intervals were calculated from a variable slope, nonlinear regression fit to the dose-response OD600 data. […]

[3] = Klebsiella pneumoniae, LB + 10 μM CuCl2
[4] = Klebsiella pneumoniae, LB + 500 μM BCS
[5] = Klebsiella pneumoniae, LB broth

SMILES | IC50 [1] | activity against susceptible strain (FIG. 7) ([1]; susceptible strain of E. coli) | IC50 ([2]; LB broth) | IC50 [2, 3] | IC50 [2, 4] | IC50 [2, 5]
CC1(C)S[C@@H]2[C@H](NC(=O)[C@H](N)c3ccccc3)C(=O)N2[C@H]1C(=O)O [Ampicillin] | < 18 µM | very active | > 250 µM | – | – | –
O=C(Cc1ccccc1)N[C@@H]1C(=O)N2C(C(=O)O)=C(CSc3cccc[n+]3[O-])CS[C@H]12 [DB4-51, 2-((((6R,7R)-2-carboxy-8-oxo-7-(2-phenylacetamido)-5-thia-1-azabicyclo[4.2.0]oct-2-en-3-yl)methyl)thio)pyridine 1-oxide] | 80 µM | – | – | 0.025 µM | 0.02 µM | –
Cc1csc(=S)n1OCC1=C(C(=O)O)N2C(=O)[C@@H](NC(=O)Cc3ccccc3)[C@H]2SC1 [DB4-162, (6R,7R)-3-(((4-methyl-2-thioxothiazol-3(2H)-yl)oxy)methyl)-8-oxo-7-(2-phenylacetamido)-5-thia-1-azabicyclo[4.2.0]oct-2-ene-2-carboxylic acid] | – | – | – | 22 µM | 24 µM | 28 µM
[O-][n+]1ccccc1S [PT, 2-mercaptopyridine N-oxide] | < 18 µM | – | – | 0.009 µM | 0.019 µM | 0.011 µM
